Experimental data: patent publication US10300143B2, “Compositions for treating cancer and methods for making the same” (THE BRIGHAM AND WOMEN'S HOSPITAL, INC., priority 2012, dated 2019)
Where two headings read alike, the source gives them in different places.

Columns and labels:
[1] = tested on: Lewis lung carcinoma (LLC) cells; test: Cell viability assay (MTS), platinates; assay type: cell-based; conditions: 48 h
Procedure: (§1) The LLC cells, breast cancer cell line (4T1), and hepatocellular carcinoma cells (CP20) were seeded into 96-well flat bottomed plates (4×10^3 cells per well). Drugs or SACNs were added at equivalent Pt concentrations and incubated for 48 h. Viability was quantified using the Cell-Titer 96 Aqueous One Solution™ reagent. Cellular apoptosis was quantified using Annexin-V-Alexa Fluor™ 488 conjugate and propidium iodide staining followed by FACS.
(§2) The Lewis lung carcinoma (LLC) cells, breast cancer cell line (4T1), and hepatocellular carcinoma cells (CP20) were purchased from American Type Culture Collection. LLC cells and CP20 cells were cultured in DMEM and 4T1 cells were cultured in RPMI medium 1640-supplemented with 10% FBS, 50 unit/mL penicillin, and 50 unit/mL streptomycin. Trypsinized cultured LLC, 4T1, and CP20 cells were washed twice with PBS and seeded into 96-well flat-bottomed plates (4×10^3 cells per well). Free drugs and SACNs were added at appropriate concentrations (0.01, 0.1, 1, 10, 20, 50 μM Pt concentration). […] After 2 h incubation in 5% CO2 atmosphere at 37° C., the absorbance in each well was recorded at 490 nm using an Epoch (BioTek™) plate reader. Results were quantified by subtracting the blank value from each value then normalizing against the control values and results were analyzed by using Prism™ software (GraphPad). […]

[2] = tested on: 4T1 breast cancer cell line; test: Cell viability assay (MTS), platinates; assay type: cell-based, murine; conditions: 48 h
Procedure: as §1, §2

4T1 breast tumors = tested on: 4T1 breast tumors
Procedure: The 4T1 breast cancer cells (3×10^5) were implanted subcutaneously in the flanks of 4-wk-old BALB/c mice. […] PBS (100 μL) by tail-vain injection was used as a control for drug treatment. Treatment was started on day 9 postimplantation, and administered every alternate day till day 13. The tumor volumes and body weights were monitored on a daily basis. The tumor volume was calculated by using the formula, L×B^2.
(§3) The tissues were fixed in 10% formalin, paraffin-embedded, and sectioned at the Harvard Medical School Core Facility. Tumor and kidney paraffin sections were deparaffinized and stained with a standard TMR red fluorescent TUNEL kit following the manufacturer's protocol (In Situ Cell Death Detection Kit™, TMR-Red; Roche). The kidney sections were also immunolabeled for KIM1 expression. Images were obtained using a Nikon Eclipse TE2000™ fluorescence microscope equipped with red filter.
The 4T1 breast cancer cells (3×105) were implanted subcutaneously in the flanks of 4-wk-old BALB/c mice (weighing 20 g; Charles River Laboratories). The drug therapy was started on day 9. […] PBS (100 μL) administered by tail-vain injection was used as a control for drug treatment. The tumor volumes and body weights were monitored on a daily basis. The tumor volume was calculated by using the formula, L×B2, where the longest diameter was considered as L and the shortest diameter as measured using a vernier caliper as B. The animals were killed when the average tumor volume of the control exceeded 2,000 mm3 in the control group. The tumors were harvested immediately following sacrifice and stored in 10% formalin for further analysis. All animal procedures were approved by the Harvard Institutional Use and Care of Animals Committee.
as §3, with “with” for “with a”, “Roche).” for “Roche). The kidney sections were also immunolabeled for KIM1 expression.”, “TE2000” for “TE2000™”

[3] = tested on: cisplatin-resistant hepatocellular carcinoma (7404-CP20) cell line; test: Cell viability assay (MTS), platinates; assay type: cell-based, human; conditions: 48 h
Procedure: as §1, §2

4T1 cells = test: FACS analysis of apoptosis (Annexin-V/PI); assay type: cell-based, murine; conditions: 1 μM Pt, 24 h
Procedure: The LLC cells, breast cancer cell line (4T1), and hepatocellular carcinoma cells (CP20) were seeded into 96-well flat bottomed plates (4×10^3 cells per well). Drugs or SACNs were added at equivalent Pt concentrations and incubated for 48 h. Viability was quantified using the Cell-Titer 96 Aqueous One Solution™ reagent. Cellular apoptosis was quantified using Annexin-V-Alexa Fluor™ 488 conjugate and propidium iodide staining followed by FACS. […] After 24 h, the cells were washed with PBS and collected at 0° C. The cells were then treated with Annexin-V-Alexa Fluor 488™ conjugate (Molecular Probes, Invitrogen) and incubated in the dark, at room temperature, for 15 min. The cells were then washed with PBS and incubated with propidium iodide (PI) solution ([…]; Sigma) containing RNase (1 mg/mL; Sigma). The cell suspension were then transferred to FACS tubes and analyzed for Annexin-V/PI staining on a BD FACS Calibur™ instrument. Data were analyzed using a CellQuestPro™ software (BD Biosciences).

[4] = Maximum tolerated dose (20% body weight loss); assay type: in vivo, BALB/c mice
[5] = tested on: K-Ras^LSL/+/Pten^fl/fl ovarian cancer; test: In vivo K-ras^LSL/+/Pten^fl/fl ovarian cancer model, platinates; parameters: species or system mice; conditions: Pt dose equivalent to 3 mg/kg of cisplatin
[6] = single dose, Pt equivalent to 8 mg/kg cisplatin

SMILES	inhibitory activity (cell viability) [1]	inhibitory activity (cell viability) [2]	survival (4T1 breast tumors; [6])	IC50 [1] [µM]	IC50 [2] [µM]	IC50 [3] [µM]	apoptosis and necrosis (4T1 cells)	maximum tolerated dose (MTD) [4] [mg/kg]	tumor growth (4T1 breast tumors; multiple dose, 1 and 3 mg/kg, days 9, 11, 13)	survival (4T1 breast tumors; multiple dose, higher dose)	tumor inhibition (4T1 breast tumors; multiple dose, highest doses (3 mg/kg Pt))	tumor inhibition (4T1 breast tumors; multiple dose, lower doses (1 mg/kg Pt))	kidney cell death (TUNEL) [5]	tumor apoptosis (TUNEL) [5]
N.N.O=C([O-])C1(C(=O)[O-])CCC1.[Pt+2] [carboplatin]	In neither of these cell lines did carboplatin exert any inhibitory activity at this concentration range	In neither of these cell lines did carboplatin exert any inhibitory activity at this concentration range	only minor increase in survival over vehicle-treated controls											
N.N.[Cl][Pt][Cl] [cisplatin, cis-dichlorodiamineplatinum (II)]			only minor increase in survival over vehicle-treated controls	2.91 ± 0.015	4.72 ± 0.016	42.84 ± 0.04	more efficacious than carboplatin	9	dose-dependent inhibition of tumor growth	increase survival	identical	greater tumor inhibition as opposed to the higher dose of carboplatin	induced apoptosis of nephrons	apoptosis
